Patent US20200069617A1, “USE OF N-ACETYLCYSTEINE AMIDE IN THE TREATMENT OF ACETAMINOPHEN OVERDOSE” (priority 2015, published 2020)

Columns and labels:
[1] = system: APAP overdose; assay: Survival of mice after APAP overdose; format: in vivo, C57 BL/6 mice; settings: FIG. 10
Protocol: Studies were then performed where C57 BL/6 mice received APAP overdose of 500 mg/kg. NACA or NAC was administered (106 mg/kg) 1.5 hours post APAP and at every 12 hours thereafter until 72 hours. The APAP group had 6 mice and the NAC and NACA groups contained 4. Mice treated with NACA/APAP survived for 150 hours, while mice treated with APAP or NAC/APAP had 60% and 30% survival respectively (FIG. 10).

[2] = system: APAP-induced hepatotoxicity; assay: Protective effects in APAP-induced hepatotoxicity (oxidative stress and organ injury markers); format: in vivo, C57BL/6 mice
Protocol: Studies were then performed to evaluate the protective effects of NACA in APAP-induced hepatotoxicity using male C57BL/6 mice that were intraperitoneally injected with 400 mg/kg of APAP after 15 hours of fasting. The therapeutic potentials of NAC and NACA were compared by administering NAC/NACA (106 mg/kg) after 1.5 hours of APAP administration and sacrificing the mice 4 hours after the APAP administration. The GSH/GSSG ratio, a crucial antioxidant parameter, and malondialdehyde (MDA) levels were measured in liver tissue.
Alanine aminotransferase (ALT) and glutamate dehydrogenase levels were also measured in serum (FIG. 3). These are markers of livery injury.

SMILES | survival ([1]; APAP overdose of 500 mg/kg alone) | oxidative stress in a number of tissues ([2]; APAP administration) | liver injury (serum ALT and glutamate dehydrogenase levels) ([2]; APAP alone, FIG. 3) | blood urea nitrogen (BUN) ([2]; APAP alone, FIG. 9) | serum creatine kinase (CK) ([2]; APAP alone, FIG. 9) | survival ([1]; APAP 500 mg/kg, 106 mg/kg 1.5 hours post APAP and every 12 hours until 72 hours)
CC(=O)Nc1ccc(O)cc1 [APAP, N-acetyl-p-aminophenol] | 60% | increases | causes liver injury | increases | increases | 
CC(=O)N[C@@H](CS)C(=O)O [NAC, N-acetylcysteine] |  |  |  |  |  | 30%
